Measured values published in patent US5814627A, “3, 5-disubstituted and 3, 4, 5-trisubstituted 2-isoxazolines and isoxazoles, process for their preparation and their use as pharmaceuticals” (Hoechst Aktienegesellschaft, priority 1994, dated 1998).
Where a name gives a salt, the structure may show the parent alone. Read-outs that look alike come from different tables or passages of the source.

Assays:
[1] = system: tumor cell line 20-10-5S (hybridoma cell line); assay: Test 8: Inhibition of tumor cell proliferation; assay type: cell-based; details: 48 h + 16 h tritiated thymidine incorporation; 20-10-5S cells
Description: The tumor cell line 20-10-5S (hybridoma cell line, supplied by ATCC (American Type Culture Collection)), which produces an antibody against mouse T cells) was used for determining the antiproliferative property of test substances. The cells were cultured, at 37° C. and 5% C2, under serum-free conditions in CG medium (cell-growth medium=Iscove-ATL (+albumin+transferrin+lipids); from Vitromex, Vilshofen). Only cells which were in the logarithmic phase of growth were used for the test mixture. The test substances were pipetted in various concentrations (from 1 to 50 μM), together with 4×10^3 20-10-5S cells, into round-bottomedmicrotiter plates (total volume with medium, 200 μl). After an incubation time of 48 h (37° C. and 5% CO2), 25 μl of tritiated thymidine (=0.25 μCi/test mixture, specific activity, 23 Ci/mM) were added to the plates. During the subsequent 16 h, the radioactively labeled thymidine was incorporated into the DNA of the growing cells. The samples were filtered off with suction on glass fiber filters and the incorporated radioactivity was measured using a β counter (Beta Plate System 1205 from Wallac).

adjuvant/arthritis model = assay: Test 6: antiarthritic effect in the adjuvant/arthritis model; assay type: in vivo, rat (Wistar-Lewis); details: for inhibition in vivo at 50 mg/kg / inhibition in vivo at 25 mg/kg: Rattus norvegicus, po, 408 h, read-out: Test 6 Paw volume (% inhibition); for inhibition in vivo at 25 mg/kg / Test 6 Paw volume (% inhibition): 25 mg/kg orally; for Test 6 Paw volume (% inhibition): hydrochloride
[2] = system: cyclooxygenase-dependent thrombocyte aggregation; assay: Test 5: Cyclooxygenase-dependent thrombocyte aggregation; assay type: cell-based, human; details: arachidonic acid as inducer; for activity at 25 µM / activity at 100 µM: Homo sapiens, read-out: Test 5 residual activity (cyclooxygenase-dependent thrombocyte aggregation), percent of control; for activity at 25 µM / Test 5 residual activity (cyclooxygenase-dependent thrombocyte aggregation), percent of control: 25 μM; for Test 5 residual activity (cyclooxygenase-dependent thrombocyte aggregation), percent of control: hydrochloride
Description: TEST 5. Cyclooxygenase-dependent thrombocyte aggregation
Platelet-rich plasma (PRP): to inhibit coagulation, human blood was treated with 1/10 of its volume of 3.8% sodium citrate solution. Centrifugation then takes place at 105×g for 20 minutes and the supernatant (PRP) is removed. 200 μl of PRP were preincubated, at 37° C. for 10 minutes, together with 30 μl of test substance in a PAP4 aggregometer (BioData). The test substance was dissolved in organic solvent and diluted 1:30 with buffer (50 mM TisHCl, pH 8.0; 90 mM NaCl). Aggregation is triggered with 20 μl of inducer. During the aggregation, stirring takes place at 800 rpm. Arachidonic acid, 5 mg/ml, was used as the inducer.
(§1) The values in the table show the concentration of the test substance which was employed in μM and, besides this, the residual activity measured in percent based on the control, which was set to be 100%. The interleukin is additionally indicated in test 4.

[3] = system: polymorphonuclear leucocytes (PMNL); assay: Test 1: Release of proteolytic activity from human PMNL; assay type: cell-based; details: for activity at 10 µM / activity at 100 µM / activity at 1 µM: Homo sapiens, PMNL, read-out: Test 1 residual activity (release of proteolytic activity), percent of control; for Test 1 residual activity (release of proteolytic activity), percent of control: hydrochloride
Description: Isolation of polymorphonuclear leucocytes (PMNL) from human peripheral blood for carrying out tests 1 and 2 10 ml of human blood were diluted with 10 ml of HBSS (Serva) and underlaid with 15 ml of Lymphoprep (Dr. Molter GmbH, Heidelberg). […] A white ring, composed of mononuclear cells, is located between these two phases. The lowermost phase is composed of erythrocytes which are covered with a white layer of PMNL. The uppermost phase, and also the Lymphoprep and the white ring, were carefully removed using a syringe. The remaining sediment was carefully resuspended in 15 ml of 3% dextran in PM16 (mw: 485,000, Sigma, Deisenhofen). The suspension was then left to stand at room temperature for one hour. During this time, the erythrocytes sedimented while the PMNL remained in the supernatant. The supernatant was removed, diluted with an approximately equal volume of PM16, and centrifuged for 15 minutes at 400×g. Should the PMNL sediment be heavily contaminated with erythrocytes, it is necessary to carry out a hypotonic lysis. To do this, the sediment was resuspended in 750 μl of water. After exactly 15 seconds, the suspension was diluted with approximately 7 ml of PM16 and centrifuged for 10 minutes at 400×g. If necessary, this lysis was repeated once more. Otherwise, the PMNL sediment was resuspended in a suitable medium. 250 μl of PMNL (5·10^6 cells/ml of PBS containing 7.5 mM glucose) were incubated at 37° C. for 20 minutes with 1 μl of test substance. 1 μl of cytochalasin B (5 μg/ml of test mixture) was then added and the mixture was incubated at 37° C. for a further 5 minutes. Following the addition of 1 μl of […] necrosis factor alpha (TNF; 30 ng/ml of test mixture), the incubation was continued for 5 minutes. The release was started using 1 μl of fMLP (10 nmol/l of test mixture). After 60 minutes at 37° C., the reaction was terminated by cooling the samples down to 0° C. The samples were then centrifuged, and the supernatant was removed and frozen down. Cytochalasin B and fMLP were dissolved in DMSO and TNF was diluted with buffer. 50 μl of the supernatant were mixed with 175 μl of buffer (100 mM HEPES, pH 7.5; 500 mM NaCl) in a 96-well microtiter plate. Following the addition of 25 μl of substrate (methoxysuccinyl-[…]-nitroanilide), the extinction of each well was measured at 405 nm after 0, 5, 10, 15, 30 and 60 minutes. […] The interleukin is additionally indicated in test 4.

[4] = system: leukotriene B4 synthesis in white blood cells; assay: Test 3: LTB4 formation by white blood cells; assay type: cell-based; details: Homo sapiens; 10 μM; read-out: Test 3 residual activity (LTB4 formation), percent of control
Description: TEST 3. LTB4 formation by white blood cells
Isolation of white blood cells:
40 ml of human blood were mixed with 8 ml of 6% dextran solution (dextran, mw: 480,000 in PM16). After one hour at room temperature, the supernatant,which was composed of white blood cells, was removed, diluted with an equal volume of PM16, and centrifuged for 15 minutes at 300×g (1600 rpm). The sediment was next resuspended in approximately 5-6 ml of PM16 and, once the cell count had been determined in a Coulter Counter, adjusted to 10^7 cells/ml.
The test mixture comprised 0.24 ml of cell suspension, 0.03 ml of 20 mM CaCl2 /5 mM MgCl2 and 5 μl of test substance. Following 15 minutes of preincubation at 37° C., the reaction was started with 0.03 ml of A23187/glutathione (100 μg of A23187/ml; 15.4 μg of glutathione/ml). The incubation was terminated after 5 minutes at 37° C. by immediate cooling of the samples down to 0° C. After centrifuging for 2 minutes in an Eppendorff Centrifuge (0° C.), the supernatant was removed and examined chromatographically.
High pressure liquid chromatography (HPLC): the HPLC equipment comprises a Kratos pump (Spectro-flow 400), a cooled automatic BT 7041 sample injector (Biotronik) having a 75 μl sample loop, a Nucleosil C18 column (100*3 mm, 5 μm particles of Chrompack), a UV detector (Kratos) Spectroflow 757 (wavelength: 280 nm, measurement range: 0.1 AUFS, time constant: 0.5 s) and a Spectra Physics integrator (SP 4270). The eluent (725 ml of methanol, 275 ml of water and 0.1 ml of acetic acid) was supplied at a flow rate of 0.7 ml/minute and at a pressure of about 100 bar.
When doing this, the measurement range which has been set can be examined and altered if necessary. It is also vital to measure the test substances at the particular test concentration (e.g.: 10^-5 M) in PM16 before the cell incubation, since the test substances might conceal the LTB4 peak. If this is the case, a lower concentration must be selected.
as §1

[5] = 50 mg/kg orally, daily for 17 days, rat

SMILES	IC50 [1]	inhibition in vivo at 50 mg/kg (adjuvant/arthritis model; [5])	other results
CCCCCCCCCCCCCCCC(=O)O[C@H](C)[C@@H]1CC(c2cc(C(C)(C)C)c(O)c(C(C)(C)C)c2)=NO1 (relative stereo) [Example 81, 1-(3-(4-Hydroxy-3,5-di-tert-butylphenyl)-2-isoxazolin-5-yl)ethyl hexadecanoate (erythro isomer)]		67%	activity at 100 µM [2]: 100%
CC(C)(C)c1cc(C2=NOC3(CC3)C2)cc(C(C)(C)C)c1O [Example 12]	10 µM	82%	
CC(O)CC1CC(c2cc(C(C)(C)C)c(O)c(C(C)(C)C)c2)=NO1 (centres unmarked) [Example 15]	8 to 15 µM	60%	
CC(C)(C)c1cc(-c2cc(CCCCO)on2)cc(C(C)(C)C)c1O [Example 27]	< 5 µM	71%	activity at 100 µM [2]: 97%
CC(O)Cc1cc(-c2cc(C(C)(C)C)c(O)c(C(C)(C)C)c2)no1 (centres unmarked) [Example 30]	5 to 10 µM	63%	
CC(C)(C)c1cc(-c2cc(CNC(=O)[C@@H](N)Cc3ccccc3)on2)cc(C(C)(C)C)c1O [Example 55, L-Phenylalanyl-N-(3-(4-hydroxy-3,5-di-tert-butylphenyl)-isoxazol-5-ylmethyl)amide hydrochloride]	< 5 µM		inhibition in vivo at 50 mg/kg (adjuvant/arthritis model): 47%
CC(C)(C)c1cc(C2CC(c3ccncc3)=NO2)cc(C(C)(C)C)c1O (centres unmarked) [Example 60, 3-(4-Pyridyl)-5-(4-hydroxy-3,5-di-tert-butylphenyl)-2-isoxazoline]			activity at 10 µM [4]: 88%
CC(C)(C)c1cc(-c2cc(C=O)on2)cc(C(C)(C)C)c1O [Example 66]	< 5 µM		inhibition in vivo at 25 mg/kg (adjuvant/arthritis model; daily for 17 days, rat): 59%

Now from value to compound, other results behind:

IC50 [1]	SMILES	inhibition in vivo at 50 mg/kg (adjuvant/arthritis model; [5])	other results
20 µM	C[C@@H](OC(=O)CN)[C@@H]1CC(c2cc(C(C)(C)C)c(O)c(C(C)(C)C)c2)=NO1 (relative stereo) [Example 77, Glycine-1-(3-(4-hydroxy-3,5-di-tert-butylphenyl)-2-isoxazoline-5-yl)ethyl ester hydrochloride]	82%	activity at 25 µM [2]: 100%; activity at 10 µM ([3]; 10 μM): 74%; activity at 100 µM [3]: 30%
20 µM	CC(C)(C)c1cc(C2=NO[C@H]([C@H](O)CO)C2)cc(C(C)(C)C)c1O (relative stereo) [Example 89, 3-(3,5-Di-tert-butyl-4-hydroxyphenyl)-5-(1,2-dihydroxyethyl)-2-isoxazoline,rac. erythro isomer]	36%	
30 µM	CC(C)(C)c1cc(C2=NO[C@H]([C@@H](O)CO)C2)cc(C(C)(C)C)c1O (relative stereo) [Example 90, 3-(3,5-Di-tert-butyl-4-hydroxyphenyl)-5-(1,2-dihydroxyethyl)-2-isoxazoline,rac. threo isomer]	36%	
5 to 10 µM	CC(OC(=O)[C@@H](N)Cc1ccccc1)c1cc(-c2cc(C(C)(C)C)c(O)c(C(C)(C)C)c2)no1 (single isomer, unassigned) [Example 71, L-Phenylalanine-1-(3-(4-hydroxy-3,5-di-tert-butylphenyl)isoxazol-5-yl)ethylester hydrochloride]		inhibition in vivo at 25 mg/kg (adjuvant/arthritis model; daily for 17 days, rat): 66%; activity at 25 µM [2]: 97%; activity at 1 µM ([3]; 1 μM): 79%; activity at 10 µM ([3]; 10 μM): 42%
5 to 10 µM	CC(OC(=O)[C@@H](N)Cc1ccccc1)c1cc(-c2cc(C(C)(C)C)c(O)c(C(C)(C)C)c2)no1.Cl (single isomer, unassigned) [Example 72, L-Phenylalanine-1-(3-(4-hydroxy-3,5-di-tert-butylphenyl)isoxazol-5-yl)ethylester hydrochloride]		Test 6 Paw volume (% inhibition) (adjuvant/arthritis model; daily for 17 days, rat): 60%; Test 5 residual activity (cyclooxygenase-dependent thrombocyte aggregation), percent of control [2]: 100%; Test 1 residual activity (release of proteolytic activity), percent of control ([3]; 1 μM): 82%; Test 1 residual activity (release of proteolytic activity), percent of control ([3]; 10 μM): 51%
5 to 10 µM	CC(OC(=O)[C@@H](N)Cc1ccccc1)C1CC(c2cc(C(C)(C)C)c(O)c(C(C)(C)C)c2)=NO1 (single isomer, unassigned) [Example 74, L-Phenylalanine-1-(3-(4-hydroxy-3,5-di-tert-butylphenyl)isoxazolin-5-yl)ethyl ester hydrochloride]		inhibition in vivo at 25 mg/kg (adjuvant/arthritis model; daily for 17 days, rat): 60%; activity at 25 µM [2]: 95%; activity at 10 µM ([3]; 10 μM): 64%
5 to 10 µM	CC(OC(=O)[C@@H](N)Cc1ccccc1)C1CC(c2cc(C(C)(C)C)c(O)c(C(C)(C)C)c2)=NO1 (single isomer, unassigned) [Example 75, L-Phenylalanine-1-(3-(4-hydroxy-3,5-di-tert-butylphenyl)isoxazolin-5-yl)ethyl ester hydrochloride]		Test 6 Paw volume (% inhibition) (adjuvant/arthritis model; daily for 17 days, rat): 76%; Test 5 residual activity (cyclooxygenase-dependent thrombocyte aggregation), percent of control [2]: 98%; Test 1 residual activity (release of proteolytic activity), percent of control ([3]; 10 μM): 49%; activity at 1 µM ([3]; 1 μM): 89%
< 5 µM	CC(C)(C)c1cc(C2=NOC3(CCC3)C2)cc(C(C)(C)C)c1O [Example 67]	53%	
5 to 10 µM	CC(C)(C)c1cc(C2=NOC(C(C)(C)O)C2)cc(C(C)(C)C)c1O (centres unmarked) [Example 69]	83%	
20 µM	CC(OC(=O)CN)c1cc(-c2cc(C(C)(C)C)c(O)c(C(C)(C)C)c2)no1 (centres unmarked) [Example 76, Glycine-1-(3-(4-hydroxy-3,5-di-tert-butylphenyl)isoxazol-5-yl)ethyl ester hydrochloride]	70%	activity at 25 µM [2]: 99%; activity at 10 µM ([3]; 10 μM): 68%; activity at 100 µM [3]: 9%
